Here are results for 3 molecules from patent publication US7538098B2, “19-nor-vitamin D analogs with 1,2 or 3,2 heterocyclic ring” (Wisconsin Alumni Research Foundation, priority 2006, dated 2009).

Test [1] concerns Human promyelocytic leukemia (HL60) cells. Put plainly: HL-60 differentiation (nitro blue tetrazolium reduction). The class given is cell-based. Conditions: FIG. 2; for EC50: Homo sapiens, HL-60. The method, then:
The study drugs were dissolved in ethanol and the concentrations determined using UV spectrophotometry. Serial dilutions were prepared so that a range of drug concentrations could be tested without changing the final concentration of ethanol (≦0.2%) present in the cell cultures.
Human promyelocytic leukemia (HL60) cells were grown in RPMI-1640 medium containing 10% fetal bovine serum. The cells were incubated at 37° C. in the presence of 5% CO2.
HL60 cells were plated at 1.2×10^5 cells/ml. Eighteen hours after plating, cells in duplicate were treated with drug. Four days later, the cells were harvested and a nitro blue tetrazolium reduction assay was performed (Collins et al., 1979; J. Exp. Med. 149:969-974). The percentage of differentiated cells was determined by counting a total of 200 cells and recording the number that contained intracellular black-blue formazan deposits. Verification of differentiation to monocytic cells was determined by measuring phagocytic activity (data not shown).

Test [2] deals with 24-hydroxylase (24Ohase) gene promoter in ROS 17/2.8 (bone) cells. The experiment in a line: In vitro transcription assay (luciferase reporter). The class given is cell-based. Conditions: FIG. 3; for EC50: 24-hydroxylase promoter luciferase reporter, read-out: EC50, transcriptional activity in bone cells; for Transcriptional activity, result in words: 24-hydroxylase (CYP-24) promoter luciferase reporter. The method, then:
Transcription activity was measured in ROS 17/2.8 (bone) cells that were stably transfected with a 24-hydroxylase (24Ohase) gene promoter upstream of a luciferase reporter gene (Arbour et al., 1998). Cells were given a range of doses. Sixteen hours after dosing the cells were harvested and luciferase activities were measured using a luminometer. RLU=relative luciferase units

Another test deals with D-deficient CD-1 mice. Put plainly: Bone calcium mobilization, 1st in vivo study (D-deficient mice). Conditions: for Bone calcium mobilization activity (serum calcium change), overall: single intraperitoneal injection, D-deficient CD-1 mice, FIG. 4. The method, then: Female, CD-1 mice (6 weeks old) were purchased from Harlan Sprague-Dawley. Upon arrival, the animals were placed in a room with filtered lighting and fed a purified, D-deficient diet (Suda et al 1970 J. Nutrition) for 17 weeks. […] Serum calcium was measured by diluting with 0.1% lanthum chloride and reading the absorbance using an atomic absorption spectrometer. The change in serum calcium from pre-dose values (baseline) is reported.
(§1) In vivo data were analyzed by one-way ANOVA followed by pairwise comparisons when significant overall differences were detected. Post-hoc analyses includes, Tukey's, Scheffe's, and Fisher's LSD tests. Only differences (p<0.05) that were present in two out of the three post-hoc tests were considered significant.
Calcium mobilization from bone in vitamin D-deficient animals.

Test [3] deals with T1, full-length recombinant rat vitamin D receptor (Rattus norvegicus, UniProt P13053).
T1 construct: Full-length recombinant rat receptor was expressed in E. coli BL21 (DE3) Codon Plus RIL cells; histidine tag (C); made in house; host or cells: E. coli BL21 (DE3) Codon Plus RIL
T1 sequence (P13053 1-423): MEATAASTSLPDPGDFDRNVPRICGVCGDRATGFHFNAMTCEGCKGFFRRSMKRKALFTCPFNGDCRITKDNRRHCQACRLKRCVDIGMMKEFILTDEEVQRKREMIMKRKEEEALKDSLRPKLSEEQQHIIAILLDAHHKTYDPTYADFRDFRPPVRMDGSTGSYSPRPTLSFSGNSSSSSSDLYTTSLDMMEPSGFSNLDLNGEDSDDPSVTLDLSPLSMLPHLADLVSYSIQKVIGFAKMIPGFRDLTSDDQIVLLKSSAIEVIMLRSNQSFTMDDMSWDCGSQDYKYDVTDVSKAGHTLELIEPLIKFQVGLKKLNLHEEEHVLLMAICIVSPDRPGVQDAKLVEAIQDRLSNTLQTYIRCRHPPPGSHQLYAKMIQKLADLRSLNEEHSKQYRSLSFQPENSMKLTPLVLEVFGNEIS
The experiment in a line: Vitamin D receptor competitive binding with [3H]-1,25(OH)2D3. Conditions: FIG. 1; for Ki: full-length recombinant rat VDR, read-out: Ki, competition with [3H]-1,25(OH)2D3 for binding to the vitamin D receptor. The procedure:
Full-length recombinant rat receptor was expressed in E. coli BL21 (DE3) Codon Plus RIL cells and purified to homogeneity using two different column chromatography systems. The first system was a nickel affinity resin that utilizes the C-terminal histidine tag on this protein. The protein that was eluted from this resin was further purified using ion exchange chromatography (S-Sepharose
Fast Flow). Aliquots of the purified protein were quick frozen in liquid nitrogen and stored at −80° C. until use. For use in binding assays, the protein was diluted in TEDK50 (50 mM Tris, 1.5 mM EDTA, pH7.4, 5 mM DTT, 150 mM KCI) with 0.1% Chaps detergent. The receptor protein and ligand concentration was optimized such that no more than 20% of the added radiolabeled ligand was bound to the receptor.
Radiolabeled and unlabeled ligands were added to 100 mcl of the diluted protein at a final ethanol concentration of ≦10%, mixed and incubated overnight on ice to reach binding equilibrium. The following day, 100 mcl of hydroxylapatite slurry (50%) was added to each tube and mixed at 10-minute intervals for 30 minutes. The hydroxylapaptite was collected by centrifugation and then washed three times with Tris-EDTA buffer (50 mM Tris, 1.5 mM EDTA, pH 7.4) containing 0.5% Titron X-100. After the final wash, the pellets were transferred to scintillation vials containing 4 ml of Biosafe II scintillation cocktail, mixed and placed in a scintillation counter. Total binding was determined from the tubes containing only radiolabeled ligand.

The test system of test [4] is D-sufficient CD-1 mice. The experiment in a line: Bone calcium mobilization, 2nd in vivo study (D-sufficient mice). To be noted: single intraperitoneal injection, two doses, 72 hours; FIG. 5. The procedure: 6-7 week old female CD-1 mice were purchased from Harlan (Indianapolis, Ind.). The animals were group housed and fed a purified diet containing 0.47% calcium. (Suda et al 1970 J. Nutrition). After a 5-7 day acclimation period, the animals were assigned to treatment groups (n=5-6/group) and given a single dose of the designated analogues by intraperitoneal injection. Blood was collected for serum calcium concentration analyses immediately prior to dose administration and 72 hours following dose delivery. Serum calcium were analyzed as described above.
as §1

Test [5] relates to D-sufficient CD-1 mice. The experiment in a line: Bone calcium mobilization, 3rd in vivo study (routes of administration). Conditions: FIG. 6.
Excerpt: 6-7 week old female CD-1 mice were purchased from Harlan (Indianapolis, Ind.). The animals were group housed and fed a purified diet containing 0.47% calcium. (Suda et al 1970 J. Nutrition). After a 5-7 day acclimation period, the animals were assigned to treatment groups (n=5/group) and given a single dose of the designated analogues by intraperitoneal injection or oral gavage. Blood was collected for serum calcium concentration analyses at various timepoints following dose delivery. Serum calcium was analyzed as described above.
as §1

“Also recorded” adds a separate entry of the source. Where only a bound is given, the exact number is not on record here.

As usually defined, the EC50 is the concentration at which the effect is half-maximal. For the molecule `C=C1/C(=C\C=C2/CCC[C@]3(C)[C@@H]([C@H](C)CCCC(C)(C)O)CC[C@@H]23)C[C@@H](O)C[C@@H]1O` [1,25(OH)2D3, 1α,25-dihydroxyvitamin D3, reference compound], the EC50 in test [1] is 2 nM; in test [2], 0.2 nM. Moreover, the “Bone calcium mobilization activity (serum calcium change), overall” value in the test on D-deficient CD-1 mice was “increased serum calcium levels”.

For orientation: Ki means the dissociation constant of the complex between target and ligand, obtained from inhibition or displacement. `C[C@H](CCCC(C)(C)O)[C@H]1CC[C@H]2/C(=C/C=C3/C[C@@H](O)C4=CCCO[C@@H]4C3)CCC[C@]12C` [REV-A]: the Ki in test [3] amounted to 30 nM. Also, in test [3] (less active than 1,25-(OH)2D3), the “VDR binding activity relative to 1,25-(OH)2D3” value is 3 orders of magnitude. In test [1], the “HL-60 cell differentiation, result in words” value is given as “considerably less active than 1,25(OH)2D3” and the EC50 is 100 nM. Further, in test [2], the “Transcriptional activity, result in words” value is “weak transcriptional activity; also recorded: much less transcriptional activity than 1α,25-dihydroxyvitamin D3” and the EC50 came out at 30 nM. In the test on D-sufficient CD-1 mice [4], the “Serum calcium change in D-sufficient mice” value is listed as “no significant increase in serum calcium”.

Regarding `C[C@H](CCCC(C)(C)O)[C@H]1CC[C@H]2/C(=C/C=C3\C[C@@H](O)C4=CCCO[C@@H]4C3)CCC[C@]12C` [REV-B], in test [3], the “VDR binding, result in words” value is “does not bind to the VDR; also recorded: little binding activity for VDR” and the Ki is more than 10000 nM. Also, in test [1], the “HL-60 cell differentiation, result in words” value is “lacks activity in cellular differentiation; also recorded: considerably less active than 1,25(OH)2D3” and it took 1000 nM to reach a half-maximal effect (EC50). Besides, in test [2], the “Transcriptional activity, result in words” value was “essentially no transcriptional activity; also recorded: lacks activity; also recorded: inactive”. Also, the “Calcemic response 48 hours after the dose” value with D-deficient CD-1 mice (D-deficient mice, analog doses exceeding thirty times that of the natural hormone, 48 hours) is “markedly more active”. The “Bone calcium mobilization activity (serum calcium change), overall” value in the test on D-deficient CD-1 mice is on record as “considerable bone calcium mobilization activity”. The “Serum calcium change in D-sufficient mice” value with D-sufficient CD-1 mice [4] was “remarkable in vivo activity of REV-B to raise blood calcium levels”. In the test on D-sufficient CD-1 mice [5], the “Onset of serum calcium increase compared to 1,25(OH)2D3” value was “significant delay”. Besides, the “Serum calcium increase by route of administration” value in the test with D-sufficient CD-1 mice [5] (oral gavage vs. intraperitoneal injection) is given as “Both routes of administration are effective at causing an increase in serum calcium; however, intraperitoneal injection is more effective than oral gavage”.
